Type in all cases: physicochemical
The nature of series [1]: Determining water solubility (pH 7 buffer, HPLC of supernatant). Conditions: for Concentration measured by HPLC after treatment, %: pH 7 buffer, 20° C. The method, then:
A stock pH 7 buffer solution was prepared by adding aqueous sodium hydroxide solution (0.1 M, 145 mL) to aqueous potassium dihydrogen phosphate solution (0.1 M, 250 mL), and then adding sufficient distilled water to adjust the final volume to 500 mL. At least 1 time and up to about 5 times the amount of tribenuron-methyl needed for saturation was added to a mixing vessel containing stock buffer solution at the test temperature (e.g., 20° C.). The mixture was magnetically stirred in the dark while being maintained at the test temperature. Samples were periodically removed for analysis. The samples were centrifuged using a high speed, temperature-controlled centrifuge at the test temperature for about 20 minutes at >12000 G to remove suspended particles. An aliquot of each supernatant was taken for analysis. The concentration of tribenuron-methyl in the supernatant was determined by a high pressure liquid chromatography (HPLC) with a reversed phase chromatography column and UV detection. The method should include development of best-fit calibration curves based on at least three standards using linear regression analysis. Samples were successively withdrawn from the mixing vessel and analyzed until three successive samples show little or no variation in concentration. The test is preferably replicated to ensure accuracy.

Series [2] is described as follows: Cleanout test (residual tribenuron-methyl in acetonitrile extract of rinsed bottle). Conditions: for Cleanout rating, % (concentration of tribenuron-methyl in the acetonitrile solution): lower rating = more effective cleanout. The method, then:
The cleanout test was conducted by dispersing in water a sample to produce a concentration that is normally used when applying the herbicide: 25% tribenuron-methyl. The sample was added to tap water (300 mL) in a 400 mL beaker and magnetically stirred for 2 minutes. The mixture was then stirred for 2 minutes, whereupon the resulting dispersion was dispensed in three 100 mL aliquots to 4-oz (118 mL) polyethylene bottles. The bottles were capped, inverted twice and allowed to stand overnight.
After standing overnight, each individual bottle was inverted twice and the liquid contents were then poured out. Tap water (10 mL) was added and the bottle was inverted until all sediment was re-suspended, whereupon the contents were poured out. Tap water (100 mL) was added and the bottle was inverted twice and then allowed to stand undisturbed for 10 minutes. The bottle was inverted twice more and the contents were poured out. Acetonitrile (10 mL) was added to the bottle to extract any remaining material. The acetonitrile solution was analyzed by reversed-phase liquid chromatography with UV detection. The cleanout rating (the concentration of tribenuron-methyl herbicide in the acetonitrile solution) is reported in % in Table 6 below.

A short description of series [3]: Viscosity (stated finding, no method given).
Where [4] appears, read: OD formulation, measured vs original concentration 40%.
Setting [5] is: OD formulation, original concentration 40%.
Setting [6] is: SG formulation, measured vs original concentration 25%.
Setting [7] is: SG formulation, original concentration 25%.
Setting [8] is: WG formulation, measured vs original concentration 25%.
The mark [9] stands for this setting: WG formulation, original concentration 25%.

SMILES strings stand for the structures.

For the molecule `COC(=O)c1ccccc1S(=O)(=O)NC(=O)N(C)c1nc(C)nc(OC)n1` [Amorphous tribenuron-methyl (prepared in Example 1)] [methyl 2-[4-methoxy-6-methyl-1,3,5-triazin-2-yl(methyl)carbamoylsulfamoyl]benzoate, reference compound], the results for the Solubility in series [1] (setting [4]), in series [1] (setting [6]) and in series [1] (setting [8]) were 35%, 60% and 48%, respectively. The “Concentration measured by HPLC after treatment, %” value in series [1] (setting [5]) stood at 14%; in series [1] (setting [7]), 15%; in series [1] (setting [9]) it was 12%. The “Cleanout rating, % (concentration of tribenuron-methyl in the acetonitrile solution)” value is listed as 26% in series [2] (OD formulation, prepared in Example 1); 10% in series [2] (SG formulation, prepared in Example 1); 13% in series [2] (WG formulation). Moreover, in series [3] (listed as tribenuron-methyl in amorphous state), the “Viscosity (in words)” value is reported as “highly viscous”.

For `COC(=O)c1ccccc1S(=O)(=O)NC(=O)N(C)c1nc(C)nc(OC)n1` [Tribenuron-methyl, crystalline modification I, 98% (prepared] [methyl 2-[4-methoxy-6-methyl-1,3,5-triazin-2-yl(methyl)carbamoylsulfamoyl]benzoate], the Solubility in series [1] (setting [4]) is 88%; in series [1] (setting [6]), 99.6%; in series [1] (setting [8]) it was 92%. Moreover, the results for the “Concentration measured by HPLC after treatment, %” value in series [1] (setting [5]), in series [1] (setting [7]) and in series [1] (setting [9]) were 35%, 24.9% and 23%, respectively. In addition, the “Solubility (in words)” value in series [1] (compared with amorphous tribenuron-methyl) is on record as “significant increase in its solubility”. For the same molecule, the entries for the “Cleanout rating, % (concentration of tribenuron-methyl in the acetonitrile solution)” value in series [2] (OD formulation), in series [2] (SG formulation) and in series [2] (WG formulation) were 5%, 0.1% and 2%, respectively. For the same molecule, the “Cleanout properties (in words)” value in series [2] (compared with known amorphous tribenuron-methyl product) is given as “markedly superior cleanout properties”. Also, the “Viscosity (in words)” value in series [3] (listed as crystalline modification I of tribenuron-methyl) was “significant decrease in its viscosity”.

Source of the values: patent US9643936B1, “Form of tribenuron-methyl, a process for its preparation and use of the same” (ROTAM AGROCHEM INTERNATIONAL COMPANY LIMITED, priority 2015, dated 2017).
